The values that follow come from patent US20250034167A1, “HETEROCYCLIC COMPOUNDS AND METHODS OF USE” (AMGEN INC., priority 2021, published 2025).

Each structure is given as a SMILES string. Read-outs that look alike come from different tables or passages of the source.

Experiment [1] has as its system Phosphorylation of ERK1/2 in AsPC-1 cells. Nature of the experiment: Phospho-ERK1/2 MSD Assay. Type of experiment: cell-based. The method, then: Sixteen hours prior to compound treatment, AsPC-1 cells were seeded in 96-well cell culture plates at a density of 25,000 cells/well and incubated at 37° C., 5% CO2. A compound dose-response titration was diluted in growth media, added to appropriate wells of a cell culture plate, and then incubated at 37° C., 5% CO2 for 2 hours.

The target of experiment [2] is His-tagged KRAS G12D protein (Homo sapiens, UniProt P01116, G12D). Description: biochemical.
His-tagged KRAS G12D protein, sequence (P01116 1-188 isoform P01116-2 G12D): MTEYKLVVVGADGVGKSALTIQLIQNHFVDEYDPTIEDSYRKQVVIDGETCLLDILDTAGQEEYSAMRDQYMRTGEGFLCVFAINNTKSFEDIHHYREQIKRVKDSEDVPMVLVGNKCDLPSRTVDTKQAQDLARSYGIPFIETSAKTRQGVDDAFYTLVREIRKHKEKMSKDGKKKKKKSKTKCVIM
Description: The plate was incubated for 30 minutes at room temperature. Biotinylated KRPep-2d substrate (Amgen) was diluted to nM in Assay Buffer and 2 μL was added to all wells and incubated for 1 hour at room temperature. Detection Reagent (0.4 nM LANCE Eu-W1024 Anti-6×His (Perkin Elmer AD0401), 5 nM streptavidin-d2 (Cisbio 610SADLA)) was prepared in Assay Buffer, then 4 µL was added to the plate and incubated for 1 hour at room temperature.
Setting [3] is: read-out: 2 h p-ERK (AsPC-1 cells), IC50, AsPC-1 cells, 2 h compound treatment.
Setting [4] is: Homo sapiens, ASPC1, 2 h, read-out: 2 h p-ERK (AsPC-1 cells), IC50, AsPC-1 cells, 2 h compound treatment.

Consider `CCc1c(F)ccc2cc(O)cc(-c3ncc4c(N5CCCC(O)(CF)C5)nc(OC[C@@]56CCCN5C[C@H](F)C6)nc4c3F)c12` (single isomer, unassigned) [Example 171], for which the IC50 in experiment [1] (setting [3]) was 2 nM. For `CCc1c(F)ccc2cc(O)cc(-c3ncc4c(N5CCCC(O)(CF)C5)nc(OC[C@@]56CCCN5C[C@H](F)C6)nc4c3F)c12` (single isomer, unassigned) [Example 172], in experiment [1] (setting [3]), the IC50 came out at 86 nM. As for `CCc1c(F)ccc2cc(O)cc(-c3ncc4c(N5CCC[C@@](C)(N)C5)nc(OCC56CCCN5CC(F)C6)nc4c3F)c12` (stereo in doubt) [Example 46, 4-(4-((R)-3-Amino-3-methylpiperidin-1-yl)-8-fluoro-2-(((2R,7aS)-2-fluorotetrahydro-1H-pyrrolizin-7a(5H)-yl)methoxy)pyrido[4,3-d]pyrimidin-7-yl)-5-ethyl-6-fluoronaphthalen-2-ol], the IC50 in experiment [1] (setting [4]) was 213 nM. On the same count and under the same terms, the value for `CCc1c(F)ccc2cc(O)cc(-c3ncc4c(N5CCCC(OC)C5)nc(OC[C@@]56CCCN5C[C@H](F)C6)nc4c3F)c12` (stereo partly drawn) [Example 15, 5-Ethyl-6-fluoro-4-(8-fluoro-2-(((2R,7aS)-2-fluorotetrahydro-1H-pyrrolizin-7a(5H)-yl)methoxy)-4-(3-methoxypiperidin-1-yl)pyrido[4,3-d]pyrimidin-7-yl)naphthalen-2-ol] was 1480 nM; that for `CCc1c(F)ccc2cc(O)cc(-c3ncc4c(N5CCC(O)C5)nc(OC[C@@]56CCCN5C[C@H](F)C6)nc4c3F)c12` (stereo partly drawn) [Example 16, 1-(7-(8-Ethyl-7-fluoro-3-hydroxynaphthalen-1-yl)-8-fluoro-2-(((2R,7aS)-2-fluorotetrahydro-1H-pyrrolizin-7a(5H)-yl)methoxy)pyrido[4,3-d]pyrimidin-4-yl)pyrrolidin-3-ol] was 2860 nM; that for `CCc1c(F)ccc2cc(O)cc(-c3ncc4c(N5C[C@H](O)CC[C@H]5C)nc(OC[C@@]56CCCN5C[C@H](F)C6)nc4c3F)c12` [Example 36, (3R,6R)-1-(7-(8-Ethyl-7-fluoro-3-hydroxynaphthalen-1-yl)-8-fluoro-2-(((2R,7aS)-2-fluorotetrahydro-1H-pyrrolizin-7a(5H)-yl)methoxy)pyrido[4,3-d]pyrimidin-4-yl)-6-methyl-piperidin-3-ol] was 344 nM. As to `CCc1c(F)ccc2cc(O)cc(-c3ncc4c(N5CCC[C@H](C(N)=O)C5)nc(OC[C@@]56CCCN5C[C@H](F)C6)nc4c3F)c12` [Example 90, (S)-1-(7-(8-Ethyl-7-fluoro-3-hydroxynaphthalen-1-yl)-8-fluoro-2-(((2R,7aS)-2-fluorotetrahydro-1H-pyrrolizin-7a(5H)-yl)methoxy)pyrido[4,3-d]pyrimidin-4-yl)piperidine-3-carboxamide], the half-maximal inhibitory concentration (IC50) in experiment [2] was 16 nM. On the same count and under the same terms, then `CCc1c(F)ccc2cc(O)cc(-c3ncc4c(N5CCCC(c6c[nH]cn6)C5)nc(OC[C@@]56CCCN5C[C@H](F)C6)nc4c3F)c12` (stereo partly drawn) [Example 106, 4-(4-(3-(1H-Imidazol-4-yl)piperidin-1-yl)-8-fluoro-2-(((2R,7aS)-2-fluorotetrahydro-1H-pyrrolizin-7a(5H)-yl)methoxy)pyrido[4,3-d]pyrimidin-7-yl)-5-ethyl-6-fluoronaphthalen-2-ol], with 10 nM; and `CCc1c(F)ccc2cc(O)cc(-c3ncc4c(N5CCCC(c6ccn[nH]6)C5)nc(OC[C@@]56CCCN5C[C@H](F)C6)nc4c3F)c12` (stereo partly drawn) [Example 107, 4-(4-(3-(1H-Pyrazol-5-yl)piperidin-1-yl)-8-fluoro-2-(((2R,7aS)-2-fluorotetrahydro-1H-pyrrolizin-7a(5H)-yl)methoxy)pyrido[4,3-d]pyrimidin-7-yl)-5-ethyl-6-fluoronaphthalen-2-ol], with 8 nM; and `CCc1c(F)ccc2cc(O)cc(-c3ncc4c(N5CCCC(c6cnco6)C5)nc(OC[C@@]56CCCN5C[C@H](F)C6)nc4c3F)c12` (stereo partly drawn) [Example 108, 5-Ethyl-6-fluoro-4-(8-fluoro-2-(((2R,7aS)-2-fluorotetrahydro-1H-pyrrolizin-7a(5H)-yl)methoxy)-4-(3-(oxazol-5-yl)piperidin-1-yl)pyrido[4,3-d]pyrimidin-7-yl)naphthalen-2-ol], with 11 nM. Same read-out and setting: the value for `CCc1c(F)ccc2cc(O)cc(-c3ncc4c(N5CC=CC(O)C5)nc(OC[C@@]56CCCN5C[C@H](F)C6)nc4c3F)c12` (stereo partly drawn) [Example 109, 1-(7-(8-Ethyl-7-fluoro-3-hydroxynaphthalen-1-yl)-8-fluoro-2-(((2R,7aS)-2-fluorotetrahydro-1H-pyrrolizin-7a(5H)-yl)methoxy)pyrido[4,3-d]pyrimidin-4-yl)-1,2,3,6-tetrahydropyridin-3-ol] was 12 nM.

Molecule `CCc1c(F)ccc2cc(O)cc(-c3ncc4c(N5CCCC(NS(C)(=O)=O)C5)nc(OC[C@@]56CCCN5C[C@H](F)C6)nc4c3F)c12` (stereo partly drawn) [Example 110, N-(1-(7-(8-Ethyl-7-fluoro-3-hydroxynaphthalen-1-yl)-8-fluoro-2-(((2R,7aS)-2-fluorotetrahydro-1H-pyrrolizin-7a(5H)-yl)methoxy)pyrido[4,3-d]pyrimidin-4-yl)piperidin-3-yl)methanesulfonamide] registered an IC50 in experiment [2] of 6 nM. Still for that read-out and setting: the value for `CCc1c(F)ccc2cc(O)cc(-c3ncc4c(N5C[C@H]6COC[C@H]6C5)nc(OC[C@@]56CCCN5C[C@H](F)C6)nc4c3F)c12` [Example 122, 5-Ethyl-6-fluoro-4-(8-fluoro-2-(((2R,7aS)-2-fluorotetrahydro-1H-pyrrolizin-7a(5H)-yl)methoxy)-4-((3aR,6aS)-tetrahydro-1H-furo[3,4-c]pyrrol-5(3H)-yl)pyrido[4,3-d]pyrimidin-7-yl)naphthalen-2-ol] was 33 nM; that for `CCc1c(F)ccc2cc(O)cc(-c3ncc4c(N5CCCC(C(C)(C)O)C5)nc(OC[C@@]56CCCN5C[C@H](F)C6)nc4c3F)c12` (stereo partly drawn) [Example 124, 5-Ethyl-6-fluoro-4-(8-fluoro-2-(((2R,7aS)-2-fluorotetrahydro-1H-pyrrolizin-7a(5H)-yl)methoxy)-4-(3-(2-hydroxypropan-2-yl)piperidin-1-yl)pyrido[4,3-d]pyrimidin-7-yl)naphthalen-2-ol] was 70 nM; that for `CCc1c(F)ccc2cc(O)cc(-c3ncc4c(N5CCCC[C@H](O)C5)nc(OC[C@@]56CCCN5C[C@H](F)C6)nc4c3F)c12` [Example 130, (S)-1-(7-(8-Ethyl-7-fluoro-3-hydroxynaphthalen-1-yl)-8-fluoro-2-(((2R,7aS)-2-fluorotetrahydro-1H-pyrrolizin-7a(5H)-yl)methoxy)pyrido[4,3-d]pyrimidin-4-yl)azepan-3-ol] was 4 nM.

In experiment [2], `CCc1c(F)ccc2cc(O)cc(-c3ncc4c(N5CCCC[C@@H](N)C5)nc(OC[C@@]56CCCN5C[C@H](F)C6)nc4c3F)c12` [Example 131, 4-(4-((R)-3-Aminoazepan-1-yl)-8-fluoro-2-(((2R,7aS)-2-fluorotetrahydro-1H-pyrrolizin-7a(5H)-yl)methoxy)pyrido[4,3-d]pyrimidin-7-yl)-5-ethyl-6-fluoronaphthalen-2-ol] gave a 50% inhibitory concentration (IC50) of 4 nM. On the same count and under the same terms, the value for `CCc1c(F)ccc2cc(O)cc(-c3ncc4c(N5CCCC(C)(O)CC5)nc(OC[C@@]56CCCN5C[C@H](F)C6)nc4c3F)c12` (stereo partly drawn) [Example 142, 1-(7-(8-Ethyl-7-fluoro-3-hydroxynaphthalen-1-yl)-8-fluoro-2-(((2R,7aS)-2-fluorotetrahydro-1H-pyrrolizin-7a(5H)-yl)methoxy)pyrido[4,3-d]pyrimidin-4-yl)-4-methylazepan-4-ol] was 14 nM; that for `C=C1CCCN(c2nc(OC[C@@]34CCCN3C[C@H](F)C4)nc3c(F)c(-c4cc(O)cc5ccc(F)c(CC)c45)ncc23)CC1` [Example 144, 5-Ethyl-6-fluoro-4-(8-fluoro-2-(((2R,7aS)-2-fluorotetrahydro-1H-pyrrolizin-7a(5H)-yl)methoxy)-4-(4-methyleneazepan-1-yl)pyrido[4,3-d]pyrimidin-7-yl)naphthalen-2-ol] was 6 nM; that for `CCc1c(F)ccc2cc(O)cc(-c3ncc4c(N5CCCC(C)(OC)C5)nc(OC[C@@]56CCCN5C[C@H](F)C6)nc4c3F)c12` (stereo partly drawn) [Example 148, 5-Ethyl-6-fluoro-4-(8-fluoro-2-(((2R,7aS)-2-fluorotetrahydro-1H-pyrrolizin-7a(5H)-yl)methoxy)-4-(3-methoxy-3-methylpiperidin-1-yl)pyrido[4,3-d]pyrimidin-7-yl)naphthalen-2-ol] was 38 nM. Molecule `CCc1c(F)ccc2cc(O)cc(-c3ncc4c(N5CCCC(C#N)C5)nc(OC[C@@]56CCCN5C[C@H](F)C6)nc4c3F)c12` (stereo partly drawn) [Example 151, 1-(7-(8-Ethyl-7-fluoro-3-hydroxy-naphthalen-1-yl)-8-fluoro-2-(((2R,7aS)-2-fluorotetrahydro-1H-pyrrolizin-7a(5H)-yl)methoxy)pyrido[4,3-d]pyrimidin-4-yl)piperidine-3-carbonitrile] showed an IC50 in experiment [2] of 11 nM. Same read-out and setting: then `CCc1c(F)ccc2cc(O)cc(-c3ncc4c(N5C[C@H](O)C[C@H](C(F)(F)F)C5)nc(OC[C@@]56CCCN5C[C@H](F)C6)nc4c3F)c12` [Example 154, (3R,5S)-1-(7-(8-Ethyl-7-fluoro-3-hydroxy-naphthalen-1-yl)-8-fluoro-2-(((2R,7aS)-2-fluorotetrahydro-1H-pyrrolizin-7a(5H)-yl)methoxy)pyrido[4,3-d]pyrimidin-4-yl)-5-(trifluoromethyl) piperidin-3-ol], with 16 nM; and `CCc1c(F)ccc2cc(O)cc(-c3ncc4c(N5CCCC(S(=O)(=O)C(F)F)C5)nc(OC[C@@]56CCCN5C[C@H](F)C6)nc4c3F)c12` (stereo partly drawn) [Example 161, 4-(4-(3-((Difluoromethyl)sulfonyl)piperidin-1-yl)-8-fluoro-2-(((2R,7aS)-2-fluorotetrahydro-1H-pyrrolizin-7a(5H)-yl)methoxy)pyrido[4,3-d]pyrimidin-7-yl)-5-ethyl-6-fluoronaphthalen-2-ol], with 76 nM.

In general, IC50 refers to the concentration needed to halve the response being measured.
